Assay results published in patent publication US12054451B1, “Water soluble platinum (II) amino acid schiff base as an antitumor drug” (KING FAISAL UNIVERSITY, priority 2024, dated 2024).

Tested on: HepG-2 (Hepatocellular carcinoma)
Assay: SRB (sulforhodamine-B-stain) anticancer assay, HepG-2
Format: cell-based
Details: Homo sapiens, HepG2, HepG-2 cells, 48 hours at 37° C., absorbance 564 nm
Method: Investigation for the bio-reactivity of PtL, as an antitumor candidate, was achieved versus well documented human cancer cell lines, as three cancers entitled HepG2, MCF-7, and HCT-116, using the simplest tool SRB (sulforhodamine-B-stain). In particular, the most popular anticancer referenced drug (vinblastine) was used in the anticancer assay (the inhibited action of the cancer cells) to compare its bio-reactivity versus that one of PtL. The antitumor reactivity of PtL was evaluated by IC50 concentrations (half effected concentration in μM) for inhibiting the growth of the tumor and normal cell lines of human in which IC50 concentrations were obtained from Eq. 1, below.
With HepG-2 (Hepatocellular carcinoma), HCT-116 (colon carcinoma), and MCF7 (breast adenocarcinoma), as human cancer cell lines, the antitumor potential of PtL was studied against their growth by applying a spectrometric tool. Using SRB (sulforhodamine-B-stain) was essential in the spectrometric studies at a specific wavelength (564 nm, the optimized absorption wavelength). Recording the corresponded absorbance (A) at 564 nm was accomplished using a UV/Vis. spectrophotometer, UV-1800 mode Shimadzu with a mono-cell holder. […]

IC50: 7.5 ± 0.1 µM
Compound: CC[C@]1(O)C[C@@H]2CN(CCc3c([nH]c4ccccc34)[C@@](C(=O)OC)(c3cc4c(cc3OC)N(C)[C@H]3[C@@](O)(C(=O)OC)[C@H](OC(C)=O)[C@]5(CC)C=CCN6CC[C@]43[C@@H]65)C2)C1 [Vinblastine, vinblastine]
